Experimental data reported in the METLIN SMRT retention time set (Domingo-Almenara et al. 2019).

Assay: gradient 5% acetonitrile 3 min, to 50% in 2 min, to 85% in 15 min, held 3 min, 100 µL/min
Conditions: column: Zorbax Extend-C18 2.1 x 50 mm; eluents: water / acetonitrile, 0.1% formic acid
Outline: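 The system's dead and dwell volumes were 40 μL and 900 μL, with a Zorbax Extend-C18 column (2.1 × 50 mm, 1.8 μm) run at 100 μL/min in water and acetonitrile containing 0.1% formic acid each. Pure standards were analyzed in mixtures of ~100 molecules by HPLC–quadrupole time-of-flight mass spectrometry in positive and negative ionization mode. Retention time was assigned from computationally picked, manually inspected adduct peaks.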

RP-LC retention time [s] | Compound
889 | Cn1nc(COc2ccccc2)c2c1CCN(C(=O)Nc1ccccc1Cl)C2
815 | COc1ccc(CNC(=O)C2CN(S(=O)(=O)C3CC3)CC23CCCCC3)c(OC)c1 (stereo unspecified)
1000 | O=C(NCc1cccc(Br)c1)c1c(O)c2cccnc2[nH]c1=O
863 | CCOC(=O)N1CCN(c2ncnc3c2cnn3-c2cc(Cl)ccc2C)CC1
586 | CCCn1c(C)cnc1C1CN(C(=O)c2cccs2)C1
792 | Cc1cn(C)c(CC(=O)NCCN2CCCc3ccccc32)c1C(=O)O
688 | CC(C)N1C(=O)CSc2cnn(CC(=O)NC3CCCC3)c(=O)c21
669 | CC(C)NCc1ccc(-c2ccc(Cl)cc2)o1
1070 | O=C(NCCCc1ccccc1)c1nnc(-c2ccc(S(=O)(=O)N3CCCCC3)cc2)o1
661 | Cc1cc(=O)n(CC(=O)Nc2ccccc2Cl)c(N2CCCC2)n1
791 | CN1C(=O)c2cc(C(=O)NCc3ccc(F)cc3)nn2CC1(C)C(=O)NC1CCCCC1 (stereo unspecified)
900 | CN(C)S(=O)(=O)c1ccc2c(c1)N(CC(=O)NCc1cccc(F)c1)C(=O)C1CCCCN21 (stereo unspecified)
780 | Cc1c(C)c2cc3c(=O)ccoc3c(C)c2oc1=O
1020 | CC(C)S(=O)(=O)N1CCC(F)(c2nc(-c3ccccc3)no2)CC1
681 | Cc1ccc(CC(=O)N2CCc3c(c(C(=O)N4CCCC(C(=O)NC5CC5)C4)nn3C)C2)cc1 (stereo unspecified)
718 | Cc1cc(C)n(-c2cc(NCCNC(=O)c3ccc(Br)o3)ncn2)n1
649 | CCOc1ccc(C(C)NC(=O)C2CCN(c3cncnc3N3CCOCC3)CC2)cc1 (stereo unspecified)
1040 | Cc1ccc(-c2noc(Cc3nnc(-c4ccccc4)o3)n2)cc1
925 | Fc1ccc(Cc2nc(-c3cccc(-c4ccn[nH]4)c3)no2)cc1
696 | O=C(Cc1csc2nc(-c3ccccc3)cn12)NCc1ccco1
830 | CCN1C(=O)COc2ccc(-c3csc(NC(=O)C(C)C)n3)cc21
834 | COC(=O)c1ccccc1NC(=O)C1CCCN(c2nnc(C)c3c(C)n(-c4ccccc4)nc23)C1 (stereo unspecified)
988 | COc1ccc(-c2nc(-c3ccc(-c4ccc(Cl)cc4)o3)[nH]c2-c2ccc(OC)cc2)cc1

RP-LC retention time [s] | Compound
810 | COC(=O)c1cc(OCC(=O)Nc2ccc(F)cc2)c2cc(OC)ccc2n1
875 | O=C(CSc1nnc(-c2cccs2)o1)N1CCc2ccccc21
906 | CC(C)NC(=O)N1CCCC1c1nc(-c2cccc(Cl)c2)no1 (stereo unspecified)
784 | COc1ccc(OC)c(CNc2c(-c3nc(C(C)C)no3)cnc3nc(C)ccc23)c1
627 | O=C(COc1ccc(Cl)cc1)Nc1ccc(-c2cn3c(n2)SCC3)cc1
894 | CCOc1ccccc1-c1nc(Cc2noc(-c3cccnc3)n2)c(C)o1
1080 | CCN1C(=O)c2cc(S(=O)(=O)Nc3ccc(C)cc3C)ccc2Oc2cccnc21
546 | c1ccc(-c2n[nH]c(C3CCCN3)n2)cc1 (stereo unspecified)
789 | CCOC(=O)c1nc(N(C)C2CCCCC2)c2ccccc2n1
580 | COc1ccc(N2CCN(C(=S)Nc3ccc4nc(N5CCN(C)CC5)cc(C)c4c3)CC2)cc1
691 | CC(C)NCc1ccc(-c2cccc(Cl)c2)o1
919 | Cc1ccc(C(C)NC(=O)c2ccc3[nH]cc(C(=O)C(=O)N4CCCCCC4)c3c2)c(C)c1 (stereo unspecified)
871 | COc1cc(OC)cc(-c2nc(Cn3cnc4ccccc4c3=O)no2)c1
676 | O=C(Nc1cnc(N2CCCC2)nc1)c1ccccc1
958 | Cc1ccc(NC(=O)Cn2nc3cc(-c4ccccc4)nc(C)n3c2=O)c(F)c1
763 | O=S(=O)(NCC1Cn2cccc2CN1Cc1ccccc1)c1ccccc1 (stereo unspecified)
1010 | CCOC(=O)c1c(Cc2ccc(Cl)cc2)c[nH]c1C
602 | CCOC(=O)c1cnc(SCC(=O)N2CCC(C(N)=O)CC2)nc1N
881 | O=C(CN1CCN(Cc2ccc(F)cc2Cl)C1=O)N1CCN(c2ccccc2)CC1
707 | CCC1(C(=O)NCc2ccc(C)cc2)CCCCC(=O)N1 (stereo unspecified)
670 | CCN(Cc1ccccc1)c1ccc(-c2noc(CN3CCN(C)CC3)n2)cn1
612 | COc1ccc(/C=C/c2cc(O)cc(OC3OC(CO)C(O)C(O)C3O)c2)cc1O (stereo unspecified)
740 | CCc1ccccc1S(=O)(=O)N1C[C@H](F)C[C@@H]1C(=O)N1CCOCC1

RP-LC retention time [s] | Compound
949 | CCc1nc(-n2cccc2)sc1C(=O)Nc1ccc(C)cc1
892 | Cc1ccccc1NC(=O)Cn1nc(N2CCSCC2)c2ccccc2c1=O
911 | CCC(=O)N(C1CCOCC1)C1CCN(S(=O)(=O)c2ccc(Cl)cc2C)CC1
862 | CC(C)n1cnc(S(=O)(=O)N2CCC(C(=O)Nc3cccc(C(F)(F)F)c3)CC2)c1
859 | COCCc1noc(C2Cc3ccccc3N2C(=O)NCC(C)C)n1 (stereo unspecified)
779 | COc1cc(NC(=O)c2c(OC)cc(=O)n3c2CCCC3)cc(OC)c1OC
751 | CC(Oc1ccccc1)c1nc(-c2ccc3c(c2)ncn3CCC(=O)N2CCCC2)no1 (stereo unspecified)
1060 | CCc1ccc(NC(=O)N2CCc3cn(CC)c4cccc(c34)C2)cc1
663 | COc1ccc(NC(=O)C2CCN(S(=O)(=O)c3ccc4[nH]c(=O)ccc4c3)CC2)c(OC)c1
731 | O=C(c1ccc(Cl)s1)N1CC(F)(F)C[C@H]1COc1cccnc1
1010 | CCOC(=O)c1ccc(NS(=O)(=O)c2cc3n(c2)CCCNC3=O)cc1
833 | COc1cc(OC)cc(N2C(=O)CC(c3ccc(OC)c(OC)c3)CC2=O)c1
749 | COc1cccc(C(=O)N2CCC3(CC2)NC(=O)c2cccc(Cl)c2N3)c1
778 | Cn1ccc2ccn(CC(=O)NCc3ccccc3Br)c(=O)c21
1240 | CCC(C)(C)NS(=O)(=O)c1ccc(-c2nc(C(C)C)cs2)s1
581 | O=C(O)C1CCN(C(=O)Cc2n[nH]c(=O)c3ccccc23)CC1
719 | N#Cc1ccccc1NC(=O)COc1ccc(Cl)cc1Cl
569 | O=C1NC(C(=O)NC2CC2)Cn2cccc21 (stereo unspecified)
811 | O=C(c1c[nH]c2ccccc12)N1CCN(c2cc(-c3ccc(Cl)cc3)[nH]n2)CC1
620 | O=C(c1ccc2c(c1)OCO2)N1CCN(c2nc(CN3CCCCC3)cs2)CC1
831 | Cc1ccc(NC(=O)N2CCC3(CC2)NC(=O)c2ccccc2O3)cc1Cl
647 | COc1ccc(CCC(=O)NC2CCN(c3nnc4cccc(C)n34)CC2)cc1
1310 | Cc1ccc(Sc2nccnc2N2CCCC(C(=O)N3CCN(c4cccc(C)c4)CC3)C2)cc1 (stereo unspecified)

RP-LC retention time [s] | Compound
825 | CCCNC(=O)N1CCc2c(c(-c3nc(-c4ccccc4)no3)nn2C)C1
866 | CC(NC(=O)Cn1cc(C(=O)C2CC2)c2ccccc21)c1ccc2c(c1)OCCCO2 (stereo unspecified)
964 | CC(C)CNC(=O)NC1CCN(c2nc3cccnc3n(Cc3ccccc3)c2=O)CC1
1200 | O=S(=O)(c1ccc(-c2noc(-c3ccccc3Cl)n2)cc1)N1CCCC1
665 | CCc1ccc(NC(=O)N2CCC(n3cnnc3C3CC3)C2)cc1 (stereo unspecified)
1090 | Cc1oc(-c2ccccc2)nc1Cc1noc(Cc2ccc(F)cc2)n1
683 | Cc1cccc(NS(=O)(=O)c2cc(-c3[nH]ncc3C(=O)N3CCOCC3)oc2C)c1
867 | Cc1noc(-c2ccnc(-n3cnc(C(=O)NC(C)c4ccccc4)c3)c2)n1 (stereo unspecified)
791 | O=C(NCc1ccc2c(c1)OCCCO2)c1cccs1
724 | Cc1csc(-c2cc(S(=O)(=O)N3CCN(CC(C)C)CC3)cn2CC(=O)N2CCCCC2)n1
891 | Cc1cc(C(F)F)n2nc(C(=O)Nc3ccc(Br)cc3)nc2n1
600 | CC1C(=O)NCCN1C(=O)Cc1ccc2c(c1)OCO2 (stereo unspecified)
568 | NS(=O)(=O)c1ccc(CCNC(=O)c2cnc3sccn3c2=O)cc1
671 | Cn1nc(C(=O)N2CCCC(C(=O)NC3CC3)C2)c2c1CCN(C(=O)CCc1ccccc1)C2 (stereo unspecified)
1200 | O=C1CC(c2noc(-c3ccc4c(c3)OCO4)n2)CN1c1ccc(F)cc1 (stereo unspecified)
906 | CN(CC1CCOCC1)S(=O)(=O)c1cccc(C(F)(F)F)c1
1130 | CCCn1cc(C(=O)Nc2ccc(OC)cc2C)c(=O)c2ccc(C)nc21
719 | O=C(NC1CCCCCCC1)C1CCCN(c2cn[nH]c(=O)c2)C1 (stereo unspecified)
879 | Cc1noc2nc(C)n(CC(=O)Nc3cccc(C(F)(F)F)c3)c(=O)c12
645 | CCc1nc2cc(-c3noc(-c4n[nH]c5ccccc45)n3)ccc2o1
852 | O=c1c2ncccc2n(Cc2c(F)cccc2Cl)c(=O)n1Cc1cccnc1
972 | COC(=O)c1cccc(NC(=O)N2CCC(c3nc(C(=O)N(C)C)c(C)o3)CC2)c1
